According to patent US20140057961A1, “SIN3B COMPLEX INHIBITION AND USE THEREOF IN THE PREVENTION OF PRO-ONCOGENIC INFLAMMATION AND CANCER” (New York University, priority 2012, published 2014):

Key:
[1] = tested on: IL-1α expression in BxPc3 human PDAC cells; experiment: Quantitative RT-PCR for IL-1α mRNA expression in BxPc3 pancreatic cancer cells; assay type: cell-based; conditions: BxPc3 cells treated 48 hours with 0.2 μM or 1 μM, relative to DMSO; FIG. 5, p<0.05
Protocol: Quantitative PCR for Sin3B (*p<0.005) and IL-1α (*p<0.05) mRNA expression in BxPc3 pancreatic cancer cell lines. BxPc3 were infected with an empty vector or a shRNA against Sin3B (shSin3B). ShSin3B mRNA expressions are relative to the empty vector expression.
(§1) Quantitative PCR for IL-1α and IL-6 mRNA expression in BxPc3 pancreatic cancer cell lines. BxPc3 has been treated 48 hours with vehicle DMSO, 0.2 μM (TSA 0.2) or 1 μM (TSA 1) of Trichostatin A. Sin3B and IL-1α mRNA expressions are relative to the expressions in DMSO (*p<0.05).
(§2) BxPc3 human pancreatic cancer cell lines are known in the art and available from American Type Culture Collection (ATCC, Manassas, Va.). Cells were cultured in RPMI, 10% FBS, Sodium Pyruvate, HEPES and Penicillin/[…]. The cultures were maintained in 5% CO2 at 37° C.
DNA sequences encoding shRNAs for Sin3B (shSin3B) were selected and cloned into the PLKO retroviral vector (Open Biosystem). BxPc3 cells were infected with shSin3B or PLKO for 3 days and selected in puromycin for 5 days. The level of Sin3B knockdown by shSin3B was determined by quantitative RT-PCR.
Extraction of total RNA from Pancreas and PDECs was performed using RNEASY mini kit (QIAGEN). […] Quantitative RT-PCR analyses were done using the SYBR Green method and the samples were run on the BIO-RAD I cycler MYIQ. […]

[2] = tested on: IL-6 expression in BxPc3 human PDAC cells; experiment: Quantitative RT-PCR for IL-6 mRNA expression in BxPc3 pancreatic cancer cells; assay type: cell-based; conditions: BxPc3 cells treated 48 hours with 0.2 μM or 1 μM, relative to DMSO; FIG. 5
Protocol: as §1, §2
Extraction of total RNA from Pancreas and PDECs was performed using RNEASY mini kit (QIAGEN). For the pancreas, a piece was snap-frozen, ground, and the frozen powder was added to the RNEASY lysis buffer. Reverse transcription was done using Moloney murine leukemia virus polymerase and oligo(dT) primers. RT-PCR analyses were done using Tag DNA polymerase (5 Prime) and dNTP (Promega). Quantitative RT-PCR analyses were done using the SYBR Green method and the samples were run on the BIO-RAD I cycler MYIQ. Expression levels were normalized to GAPDH. Results were reported as relative to the abundance of mSin3B^+/− or mSin3^B+/− KRas^G12D transcripts. […]

Sin3B expression = conditions: van Oevelen, et al. (2008) Mol. Cell. 32:359-370; cited from earlier work

CC(/C=C/C(=O)NO)=C\[C@@H](C)C(=O)c1ccc(N(C)C)cc1 [trichostatin A]
IL-1α expression after TSA treatment [1]: specific and dose-dependent down-regulation
IL-6 expression after TSA treatment [2]: not significantly affected

GCAAAGCGGUCCCUGUUUAUU (listed as RNA, chemistry not given here) [SEQ ID NO:6]
Sin3B expression (Sin3B expression): inhibit Sin3B expression

GGCAAUGGGUCGUGCGAGAUU (chemistry not given here) [SEQ ID NO:7]
Sin3B expression (Sin3B expression): inhibit Sin3B expression
